# Source: patent US10538674B2, “Method of forming anti-rust or anti-bacterial film containing tannic acid derivatives” (NATIONAL INSTITUTE FOR MATERIALS SCIENCE, priority 2014, dated 2020)
# How the values were obtained:
# [1] = system: colon bacilli (E. Coli); assay: Pasteurization/Sterilization Testing 1: E. Coli scattered on film on glass substrate; format: cell-based; conditions: drop-cast film on glass substrate, room temperature, 24 hours after scattering, 0 hour count 1.2×10^5
# Protocol: Using TA (Comparative Example 1), TA(C6)10 (Example 6), TA(C10)10 (Example 2), and TA(C16)10 (Example 8), respectively, a film was formed by drop-casting on a 5 cm×5 cm glass substrate. Preparing a THF solution, drop-casting of the THF solution in an amount of 1.1 mg/cm^2 was followed by annealing under the conditions of 1 hour and 80° C. to prepare a drop-cast film. The TA (Comparative Example 1), TA(C6)10 (Example 6), TA(C10)10 (Example 2), and TA(C16)10 (Example 8) film was formed on the glass substrate by the aforesaid method, and colon bacilli (E. Coli) were scattered on it to observe changes in the surface of the film at room temperature. FIG. 18 is a graph representative of the results of proliferation of bacteria on the film. The cell count of colon bacilli scattered at the start (0 hour) was 1.2×10^5 CFU/mL. After the lapse of 24 hours, that cell count increased to 1.4×10^7 CFU/mL for the TA coated (control) film. […] A problem with tannic acid—known so far to be capable of pasteurization in the form of an aqueous solution—was that a tannic acid film is wrinkled up, running short of durability. […] It is here to be noted that the unit CFU/mL is an abbreviation of a colony forming unit indicative of a quantitative unit used in the inspection of bacteria in foods or a unit of the quantity of bacteria. […]
# [2] = system: golden staphs (S. Aureus); assay: Pasteurization/Sterilization Testing 1: S. Aureus scattered on film on glass substrate; format: cell-based; conditions: drop-cast film on glass substrate, 24 hours after scattering; 0 hour count 1.1 × 10^5
# [3] = system: methicillin-resistant Staphylococcus Aureus (MRSA); assay: Pasteurization/Sterilization Testing 1: MRSA scattered on film on glass substrate; format: cell-based; conditions: drop-cast film on glass substrate, 24 hours after scattering; 0 hour count 1.2 × 10^5
# [4] = Solubility upon addition to water and chloroform; format: physicochemical
# Text: Tannic acid powders (WAKO, 203-06331) were kept at the ready. FIG. 2(a) is a photograph taken of the external view of tannic acid powders, FIG. 2(b) is a photograph of the external view of tannic acid powders upon added to water, and FIG. 2(c) is a photograph of the external view of tannic acid powders upon added to chloroform. As shown in FIG. 2(a), the tannic acid powders were ocher powders. […] This tannic acid material was used for Comparative Example 1. FIG. 4(a) is a photograph taken of the external view of the derivative, and FIGS. 4(b) and 4(c) are photographs taken of the external views of the derivative upon added to water and chloroform, respectively.
smiles,measurement,setting,value
"O=C(OC[C@H]1O[C@@H](OC(=O)c2cc(O)c(O)c(OC(=O)c3cc(O)c(O)c(O)c3)c2)[C@H](OC(=O)c2cc(O)c(O)c(OC(=O)c3cc(O)c(O)c(O)c3)c2)[C@@H](OC(=O)c2cc(O)c(O)c(OC(=O)c3cc(O)c(O)c(O)c3)c2)[C@@H]1OC(=O)c1cc(O)c(O)c(OC(=O)c2cc(O)c(O)c(O)c2)c1)c1cc(O)c(O)c(OC(=O)c2cc(O)c(O)c(O)c2)c1 [TA, tannic acid]","Cell count of E. Coli, 24 hours",[1]; listed as Control,1.4 × 10^7 CFU/mL
same,"Cell count of E. Coli, 24 hours",[1]; listed as TA coated (control),1.4×10^7 CFU/mL
same,"Cell count of S. Aureus, 24 hours",[2],1.1 × 10^5 CFU/mL
same,"Cell count of MRSA, 24 hours",[3],1.7 × 10^5 CFU/mL
same,Solubility in chloroform,[4]; upon added to chloroform (CHCl3),not in chloroform
same,Solubility in water,[4]; upon added to water,dissolved in water
